Experimental data taken from US20260212953A1, “An Integrative Framework to Identify Therapeutic Molecules for Treating Preterm Birth” (The Regents of the University of California, priority 2023, published 2026).
“Also recorded” adds a separate entry of the source.

Columns and labels:
[1] = system: preterm birth; conditions: daily low-dose; women of their first pregnancies; cited from earlier work
[2] = system: primary human uterine smooth muscle cells (HUtSMC); assay: Collagen gel contraction assay; assay type: cell-based; conditions: for reduction of oxytocin-induced myometrial contractility: on average over the four named pre-clinical drugs; for effect on HUtSMC contraction, contractile state stimulated by oxytocin: 100 nM oxytocin, OXY+DMSO as control; for effect on HUtSMC contraction, quiescent state: PBS+DMSO as control
Source text: We performed experiments to determine the functional roles of the small molecules in regulating labor timing. Because labor onset is hallmarked by muscle contraction in the uterus, we asked whether these small molecules could alter smooth muscle contraction in the uterus. We performed collagen gel contraction assays on primary human uterine smooth muscle cells (HUtSMC) (Ying et al., 2015) to examine the modes of action of the top 9 candidate drugs from our prediction (FIG. 5D). For each drug, we tested its effect on modulating HUtSMC contractility in stimulated (by oxytocin to mimic labor-like phenotypes) and quiescent states by treating cells with oxytocin and vehicle, respectively. In either condition, we determined the pharmacological effects of our identified compounds on cellular contraction (each with at least 8 replicates).
Primary Human Uterine Smooth Muscle Cells (HUISMC) were purchased from PromoCells (Cat #C-12575, Fisher Scientific, MA). Collagen gel contraction assays were performed following (Kita et al., 2008; Ying et al., 2015) with modifications. Briefly, 150 ul of collagen (Cat #5074, SigmaAldrich) was added to each well in a 48-well plate. 80,000 HUtSMC suspension in 300 ul Smooth Muscle Cell Growth Basal Medium (Lonza #CC-3181) were seeded to each well after collagen polymerization for an hour. The cells were then treated with either testing compounds or DMSO in the presence of 100 nM oxytocin or PBS control. We carefully detached the collagen from the wells by tips after 1 hour incubation at 37° C., and fixed the cells with 4% paraformaldehyde in PBS for 30 minutes after 18 hours to ensure the equivalent culture durations for all groups before imaging. We captured bright-field images with microscope systems (AmScope, Irvine, CA), and measured the gel diameters in the captured images by ImageJ where the fold changes to no cell control were taken for statistical analysis. At least three biological replicates were performed for each compound, and technically triplicates were included in each biological replicate. Information about small molecules in the study could be found in Table 4.

[3] = system: smooth muscle cells in other organs; conditions: literature curation; cited from earlier work
[4] = system: uterine contractility; conditions: in vivo; cited from earlier work
[5] = system: HUtSMCs; assay: Cell viability of HUtSMCs treated with different concentrations of RKI-1447; assay type: cell-based, human
Source text: These experimental data provided quantitative guidance on its potential clinical deployment. […] As a potent inhibitor of the Rho-kinases ROCKI/II, RKI-1447 has been mainly investigated for therapeutic effects on cancer (Dyberg et al., 2019; Li et al., 2020; Patel et al., 2012), glaucoma (Cush et al., 1995), and nonalcoholic fatty liver disease (Wang and Jiang, 2020), with less focus on putative effects on modulating uterine contractility. […] These observations provided mechanistic basis for our drug discovery and experimental observations (FIGS. 5E and 5F).

[6] = system: preterm labor; conditions: chronic treatment; cited from earlier work
[7] = system: recurrent preterm labor; assay: Weekly 17-OHPC injections in women with previous spontaneous preterm labor (longitudinal cohort); assay type: in vivo, human; conditions: number among 48 study participants; 250 mg weekly i.m., 16 to 36 weeks of gestation
Description: We performed a longitudinal patient recruitment in Alabama. The study involved 48 study participants who had previous history of spontaneous preterm labor (Supplementary Table 5 for patient information). All women admitted to the study were with singleton pregnancy and received weekly intramuscular injections of Makena 17-OHPC 250 mg beginning at 16 weeks until 36 weeks of gestation. Among the 48 study participants, 28 were considered responders to the treatment and delivered at term, whereas the remaining 20 were considered non-responders and had spontaneous preterm birth after the treatment. We acknowledged the possibility that those considered to be responders might include individuals who delivered at term owing to other reasons and not affected by the treatment. However, if we could observe genetic factors indeed differentiating the two groups, especially those involved in progesterone signaling, the observation then should be explained by progestin treatment.
We performed longitudinal recruitment of 48 women in Alabama who had previous history of spontaneous preterm labor. All women admitted to the study were with singleton pregnancy and received weekly intramuscular injections of Makena OHP 250 mg beginning at 16 weeks until 36 weeks of gestation. This study was approved by Stanford Institutional Review Board (IRB #21956). […]

[8] = system: primary myometrial cell cultures; assay: RNA-Seq of primary myometrial cell cultures treated with FSK or IL-1B (Stanfield et al., 2019a); assay type: cell-based, human; conditions: published RNA-Seq data re-examined; P=0.68
Source text: Performing functional enrichment analysis, we observed that the 69 Group I genes were highly enriched for functions associated with the regulation of muscle contraction (FDR=8.10e-4), more specifically with relaxation of muscle (FDR=2.71e-3, FIG. 3H). This explained their elevated expression prior to labor as well as their down-regulation upon delivery to promote muscle contractility.
Note that inflammatory factors are known to promote muscle contractility during labor (Khanjani et al., 2011; Mendelson et al., 2019), explaining the down-regulation of Group II genes before labor and their activation during labor. We examined primary myometrial cell cultures treated with IL-1B to mimic tissue-level inflammation at the labor onset (Stanfield et al., 2019a). […] In fact, Group-II genes included a key inflammatory activators AP-1 (with its subunits JUN and FOS), which play a central role in regulating smooth muscle contractility proteins at labor onset (Mendelson et al., 2019).
We downloaded normalized FPKM gene expression matrix of RNA-seq data (GSE134896 and GSE163773) (Ackerman et al., 2021; Stanfield et al., 2019a) from GEO for primary myometrial cell cultures following treatment with Forskolin and Interleukin-1B, and for primary myometrium samples harvested from 31 women at labor. […]

CC(=O)Oc1ccccc1C(=O)O [aspirin]
reduction of the risk of early preterm birth (before 34 gestational weeks) [1]: 25% | reduction of the risk of preterm birth (before 37 gestational weeks) [1]: 11%

O=c1cc(N2CCOCC2)oc2c(-c3ccccc3)cccc12 [LY294002]
reduction of oxytocin-induced myometrial contractility [2]: 15.73%

O=C(NCc1cccc(O)c1)Nc1nc(-c2ccncc2)cs1 [RKI-1447]
side effects on smooth muscle cells in other organs, particularly cardiotoxicity [3]: minimal effects | effect on uterine contractility in rats [4]: attenuated uterine contractility | concentration at emergence of cellular toxicity ([5]; HUtSMCs): 50 µM | effect on cell viability ([5]; over a wide dose-range): little effect on cell viability | dose-response relationship on myometrial smooth muscle relaxation ([2]; 0 to 10 μM, quiescent (PBS) and contractile (OXY) states): dose-dependent effects on myometrial smooth muscle relaxation | effect on HUtSMC contraction, contractile state stimulated by oxytocin [2]: attenuated myometrial contraction; also recorded: attenuated oxytocin-induced myometrial contractility | effect on myometrial cell contractility in the presence and absence of oxytocin ([2]; both states): the only drug to prevent myometrial cell contractility in the presence and absence of oxytocin | effect on myometrial cell contractility in either quiescent or contractile state [2]: altered myometrial contractility | effect on HUtSMC contraction, quiescent state [2]: strongly reduced the contraction

C[S+]([O-])c1ccc(-c2nc(-c3ccncc3)c(-c3ccc(F)cc3)[nH]2)cc1 (centres unmarked) [SB-203580]
effect on HUtSMC contraction, contractile state stimulated by oxytocin [2]: increased the contraction | effect on myometrial cell contractility in either quiescent or contractile state [2]: altered myometrial contractility | effect on HUtSMC contraction, quiescent state [2]: significantly induced myometrial cell contraction

CN1CCN(Cc2ccc(-c3cnc4[nH]cc(-c5ccc6[nH]ccc6c5)c4c3)cc2)CC1 [URMC-099]
effect on HUtSMC contraction, contractile state stimulated by oxytocin [2]: attenuated myometrial contraction; also recorded: attenuated oxytocin-induced myometrial contractility | effect on myometrial cell contractility in either quiescent or contractile state [2]: altered myometrial contractility | reduction of oxytocin-induced myometrial contractility [2]: 15.73%

[H]/N=C(/N)SCCCn1cc(C2=C(c3cn(C)c4ccccc34)C(=O)NC2=O)c2ccccc21 [bisindolylmaleimide-ix]
effect on HUtSMC contraction, contractile state stimulated by oxytocin [2]: attenuated myometrial contraction; also recorded: attenuated oxytocin-induced myometrial contractility | effect on myometrial cell contractility in either quiescent or contractile state [2]: altered myometrial contractility | reduction of oxytocin-induced myometrial contractility [2]: 15.73%

COc1cccc(-c2cc(=O)c3ccccc3o2)c1N [PD-98059]
efficacy in a rat model of preterm labor [6]: demonstrated efficacy | effect on myometrial cell contractility in either quiescent or contractile state [2]: absence of signal

CCCCCC(=O)O[C@]1(C(C)=O)CC[C@H]2[C@@H]3CCC4=CC(=O)CC[C@]4(C)[C@H]3CC[C@@]21C [17-OHPC, 17-hydroxyprogesterone caproate]
non-responders (spontaneous preterm birth after the treatment) [7]: 20 | responders (delivered at term) [7]: 28

IL-1B: cytokine used to mimic tissue-level inflammation at the labor onset
response of Group II genes to treatment [8]: overall not responsive

N#CC(=C(/N)Sc1ccccc1N)/C(C#N)=C(\N)Sc1ccccc1N [U0126]
efficacy in a rat model of preterm labor [6]: demonstrated efficacy | effect on myometrial cell contractility in either quiescent or contractile state [2]: absence of signal

Brc1c(Br)c(Br)c2[nH]nnc2c1Br [4,5,6,7-tetrabromobenzotriazole]
effect on HUtSMC contraction, contractile state stimulated by oxytocin [2]: attenuated myometrial contraction | effect on HUtSMC contraction, contractile state stimulated by oxytocin ([2]; listed as TBBt): attenuated oxytocin-induced myometrial contractility | effect on myometrial cell contractility in either quiescent or contractile state [2]: altered myometrial contractility | reduction of oxytocin-induced myometrial contractility [2]: 15.73%
